In ChEMBL document CHEMBL6109133, “Towards P2X4 Positron Emission Tomography Tracing” (J Med Chem, 2025) one finds fraction unbound and IC50 data, which are given here for 2 molecules.

Data set [1] is described as follows: Plasma protein binding in mouse. In kind it is ADME, cell-free. As to conditions: read-out: PPB.
A further data set concerns the target T1, P2X purinoceptor 4 (Homo sapiens, UniProt Q99571).
T1 sequence (Q99571 whole entry): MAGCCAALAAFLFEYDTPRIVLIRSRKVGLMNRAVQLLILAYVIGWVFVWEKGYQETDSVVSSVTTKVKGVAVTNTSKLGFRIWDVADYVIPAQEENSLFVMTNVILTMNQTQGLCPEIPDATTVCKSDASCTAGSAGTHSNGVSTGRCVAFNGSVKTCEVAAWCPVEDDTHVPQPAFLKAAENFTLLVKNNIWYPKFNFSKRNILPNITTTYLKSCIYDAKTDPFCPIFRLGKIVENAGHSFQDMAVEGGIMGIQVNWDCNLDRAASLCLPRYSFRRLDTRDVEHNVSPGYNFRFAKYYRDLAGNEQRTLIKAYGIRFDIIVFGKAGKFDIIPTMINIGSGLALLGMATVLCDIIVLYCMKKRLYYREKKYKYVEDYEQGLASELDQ
As to the kind of experiment: Antagonist activity at human P2X4 receptor.

On to `Cc1cc(F)ccc1CS(=O)(=O)Nc1ccc(N2C(=O)CC(=O)Nc3c2ccc2ccccc32)cc1`, for which the fraction unbound in data set [1] is below 0.02. It took 8 nM to reach half-maximal inhibition on P2X purinoceptor 4 (IC50).

Turning to `Cc1cc(F)ccc1S(=O)(=O)Nc1ccc(N2C(=O)CC(=O)Nc3c2ccc2ccccc32)cc1`, the fraction unbound in data set [1] was below 0.02. For the same molecule, the 50% inhibitory concentration (IC50) at P2X purinoceptor 4 was 64 nM.
